Laboratory results taken from patent US20250034208A1, “PEPTIDES AND PHARMACEUTICAL AND COSMETIC COMPOSITIONS CONTAINING THEM” (LABORATOIRES D'ANJOU, priority 2021, published 2025).
Bridges are numbered along the chain shown (N, C = ends). Where no end group is shown, it is not given here.

Legend:
[1] = system: freshly isolated human primary keratinocytes; assay: Wound closure test of a sheet of primary keratinocytes; assay type: cell-based; conditions: for wound closure activity, ranking of peptides: increasing order LRIRFTYK, CSGLRIRFTYKSGC, CLRIRFTYKC, Example 11, FIG. 10
Description: (§1) • the HT1080 line: Cells originating from epithelial lines, tools commonly used for cell adhesion studies, were first used. The cells of the HT1080 line (fibrosarcoma, Human), American Type Culture Collection CCL-121. • primary human keratinocytes: For the cell viability and migration test, freshly isolated normal human keratinocytes were used. Human keratinocytes were obtained from preputial biopsy (surgical waste, tissue bank and cells, Edouard Herriot Hospital). The culture medium used during the experiments was the medium defined for KGM-Gold keratinocytes sold by Lonza Bioscience containing 0.15 mM of CaCl2, pH 7.2 to 7.4. The keratinocytes were obtained according to the Boyce and Ham technique (Cultivation, frozen storage, and clonal growth of normal human epidermal keratinocytes in serum free-media, Tiss Cuit. Meth. 1985, 9:83-93). The pieces of skin, after rinsing in PBS buffer containing antibiotics, were freed of the fat tissue and cut into 3 mm^2 pieces, then placed in a sterile solution of 0.25% trypsin in PBS for 16 h at 4° C. The dermis/epidermis separation was carried out in a Petri dish containing culture medium in order to stop the action of trypsin. The epidermis fragments were sucked in and discharged several times to detach the free basal cells. After centrifuging, 3.10^4 live cells were seeded per cm2 on dishes for tissue cultivation (Corning, Polylabo, France). The keratinocytes were cultured at 37° C. in a CO2 incubator (5% CO2, 95% air and 98% moisture). The sub-culture took place when the cells reached the sub-confluence. The sheet of cells was then rinsed with PBS, then covered with a solution of Trypsin-EDTA (0.05-0.02%). After a short incubation at 37° C., the cells were detached, counted, and re-seeded.
6-well plates (Costar) are covered with collagen I for 16 h then rinsed with PBS. Three inserts with two Ibidi-sterile wells (Ibidi, reference: 80209) are deposited in each of the wells. 2×10^4 keratinocytes are deposited in each insert well in KBM-Gold. After two hours of incubation in humid air at 37° C., composed of 5% CO2 and 95% atmospheric air, the culture medium is sucked out and the inserts removed. KBM-Gold with no supplement is added to each of the wells of the plate. The cells are thus: not treated (medium alone), treated with supplement-free KBM-Gold containing the peptides studied (25 μg/ml), or treated with supplement-free KBM-Gold containing EGF at 10 ng/ml (Peprotech). The cultures are stopped at 12 h and 24 h, the media are sucked out, and the cells are fixed with 2% PBS-Paraformaldehyde for 20 minutes. After the fixator has been sucked out, the cells are colored with a 0.1% solution of Crystal Violet in ultrapure water for 30 minutes. The Crystal Violet is removed and the wells are rinsed with water. Image acquisitions are carried out and the injuries are quantified using Adobe Photoshop CS3 software.

[2] = system: keratinocytes of the epidermis and other epithelial cells; conditions: prior patent EP1784423 of the Applicant; cited from earlier work
HT1080 cells = assay: Cell adhesion test (colorimetric, crystal violet) on immobilized peptide; assay type: cell-based, Human; conditions: for adhesion response dependent on the amount of peptide immobilized in the wells: K substitution variants of LRIRATYG, Example 6, FIG. 5
Description: as §1, with “After centrifuging, 3.10^4 live cells were seeded per cm2 on dishes for tissue cultivation (Corning, Polylabo, France). The keratinocytes were cultured at 37° C. in a CO2 incubator (5% CO2, 95% air and 98% moisture). The sub-culture took place when the cells reached the sub-confluence. The sheet of cells was then rinsed with PBS, then covered with a solution of Trypsin-EDTA (0.05-0.02%).” left out, “re-seeded. […]” for “re-seeded.”
After seeding the cells, the plates were placed in an incubator at 37° C. in a 5% CO2 atmosphere. […] The absorbance was read at 570 nm using a plate reader (Victor^2 V Spectrophotometer, Perkin Elmer). […] The negative control value is the average of the absorbance of the three control wells (BSA). This was subtracted from each of the absorbance values obtained for the experimental points. The averages of the absorbance values for each of the conditions were calculated and were presented in the form of a curve, with on the y-axis, the average values of the absorbance, and on the x-axis, the various quantities of substrate immobilized in the wells (in μg or mole). […]

[3] = 25 μg/ml peptide, 12 and 24 h, Example 5, FIG. 4

With “CLRIRFTYKC (disulfide 1-10 (inferred); not fully specified)” the “wound closure activity, ranking of peptides” value [1] was “most significant activities”.
In the case of “TALRIRATYGEY (Other sequences) [reference compound]”, the “induction of cell adhesion” value [2] is listed as “specifically induces the adhesion”, the “wound closure activity, LRIRATYG and TALRIRATYGEY compared between them” value [1, 3] is listed as “equivalent activity between them” and the “wound closure activity compared with negative control” value ([1]; 25 μg/ml peptide, 24 h, negative control culture medium alone, Example 5, FIG. 4) is listed as “significantly greater than that of the negative control”.
With “CSGLRIRFTYKSGC (disulfide 1-14 (inferred); not fully specified)” the “wound closure activity, ranking of peptides” value [1] was “most significant activities”.
With LRIRKTYG (Other sequences) the “adhesion response dependent on the amount of peptide immobilized in the wells” value (HT1080 cells) was “disappears”.
With CSGLRIRATYGSGC (Other sequences) the “wound closure activity compared to TALRIRATYGEY and LRIRATYG” value [1, 3] was “significantly greater activity at 12 and 24 h”, the “wound closure activity compared with the other peptides” value ([1]; 25 μg/ml peptide, 12 h and 24 h, Example 4, FIG. 3) was “significantly greater than that of the other peptides” and the “wound closure compared with negative control” value ([1]; 25 μg/ml peptide, 12 h and/or 24 h post-injury, negative control culture medium alone, Example 4, FIG. 3) was “very significantly greater than that of the negative control”. The “wound closure activity compared with negative control” value ([1]; 25 μg/ml peptide, time not given, Example 5, FIG. 4) was “significantly greater than that of the negative control” and the “adhesion induction activity relative to the LRIRATYG motif” value (HT1080 cells; low concentration of immobilized peptide, Examples 2 and 3, FIG. 1 and 2) was “activity being doubled at a low concentration”.
With LRIRATYK (Other sequences) the “adhesion response dependent on the amount of peptide immobilized in the wells” value (HT1080 cells) was “decreases”.
